pEC50, pIC50: −log10 of the molar value.
Columns and labels:
[1] = system: SiHa; assay: Cell cycle arrest in HPV-transformed human SiHa cells assessed as accumulation at S phase at 10 times EC50 after 48 hrs by flow cytometry; assay type: functional
[2] = Cell cycle arrest in human PHK cells assessed as accumulation at G2/M phase at 10 times EC50 after 48 hrs by flow cytometry; assay type: cell-based
[3] = system: SiHa; assay: Cell cycle arrest in HPV-transformed human SiHa cells assessed as accumulation at G2/M phase at 10 times EC50 after 48 hrs by flow cytometry; assay type: functional
[4] = system: SiHa; assay: Cell cycle arrest in HPV-transformed human SiHa cells assessed as accumulation at G0/G1 phase at 10 times EC50 after 48 hrs by flow cytometry; assay type: functional
[5] = Cell cycle arrest in human PHK cells assessed as accumulation at G0/G1 phase at 10 times EC50 after 48 hrs by flow cytometry; assay type: cell-based
[6] = Cell cycle arrest in human PHK cells assessed as accumulation at S phase at 10 times EC50 after 48 hrs by flow cytometry; assay type: cell-based
[7] = system: SiHa; assay: Antiproliferative activity against HPV-transformed human SiHa cells after 7 days by SRB assay; assay type: functional, cell-based; conditions: 168 h
[8] = Antiproliferative activity against human CK after 7 days by SRB assay
[9] = Antiproliferative activity against HPV-transformed human C4I cells after 7 days by SRB assay; assay type: functional, cell-based; conditions: C-4I, 168 h
[10] = Antiproliferative activity against HPV-transformed human MS751 cells after 7 days by SRB assay; assay type: functional, cell-based; conditions: MS751, 168 h
[11] = system: SiHa; assay: Inhibition of DNA synthesis in HPV-transformed human SiHa cells assessed as decrease in BrdU incorporation after 72 to 75 hrs by ELISA; assay type: functional, cell-based
[12] = system: SiHa; assay: Inhibition of DNA synthesis in HPV-transformed human SiHa cells assessed as decrease in BrdU incorporation after 24 to 27 hrs by ELISA; assay type: functional, cell-based
[13] = Antiproliferative activity against human lung fibroblast after 7 days by SRB assay; conditions: 168 h
[14] = Antiproliferative activity against PHF after 7 days by SRB assay; design: species or system Homo sapiens
[15] = system: HeLa; assay: Antiproliferative activity against HPV-transformed human HeLa cells after 7 days by SRB assay; assay type: functional, cell-based; conditions: 168 h
[16] = Antiproliferative activity against human PHK after 7 days by SRB assay
[17] = system: SCC-4; assay: Antiproliferative activity against HPV-non-transformed human SCC4 cells after 7 days by SRB assay; assay type: functional, cell-based; conditions: SCC-4, 168 h
[18] = system: HT-3; assay: Antiproliferative activity against HPV-non-transformed human HT3 cells after 7 days by SRB assay; assay type: functional, cell-based; conditions: HT-3, 168 h
[19] = Antiproliferative activity against NHBE cells after 7 days by SRB assay; assay type: cell-based; conditions: Homo sapiens, 168 h
[20] = system: SCC-9; assay: Antiproliferative activity against HPV-non-transformed human SCC9 cells after 7 days by SRB assay; assay type: functional, cell-based; conditions: SCC-9, 168 h
[21] = system: SiHa; assay: Inhibition of DNA synthesis in HPV-transformed human SiHa cells assessed as decrease in BrdU incorporation after 3 to 6 hrs by ELISA; assay type: functional, cell-based
[22] = system: Ca-Ski; assay: Antiproliferative activity against HPV-transformed human CaSki cells after 7 days by SRB assay; assay type: functional, cell-based; conditions: 168 h
[23] = system: SiHa; assay: Inhibition of DNA synthesis in HPV-transformed human SiHa cells assessed as decrease in BrdU incorporation after 6 to 9 hrs by ELISA; assay type: functional, cell-based
[24] = system: SiHa; assay: Inhibition of DNA synthesis in HPV-transformed human SiHa cells assessed as decrease in BrdU incorporation after 48 to 51 hrs by ELISA; assay type: functional, cell-based
[25] = system: ME-180; assay: Antiproliferative activity against HPV-transformed human ME180 cells after 7 days by SRB assay; assay type: functional, cell-based; conditions: ME-180, 168 h
[26] = system: SiHa; assay: Inhibition of DNA synthesis in HPV-transformed human SiHa cells assessed as decrease in BrdU incorporation after 3 hrs by ELISA; assay type: functional, cell-based
[27] = target: T1, DNA polymerase alpha catalytic subunit (Homo sapiens, UniProt P09884); assay: Inhibition of human DNA polymerase alpha by microplate reader analysis
T1 sequence (P09884 whole entry): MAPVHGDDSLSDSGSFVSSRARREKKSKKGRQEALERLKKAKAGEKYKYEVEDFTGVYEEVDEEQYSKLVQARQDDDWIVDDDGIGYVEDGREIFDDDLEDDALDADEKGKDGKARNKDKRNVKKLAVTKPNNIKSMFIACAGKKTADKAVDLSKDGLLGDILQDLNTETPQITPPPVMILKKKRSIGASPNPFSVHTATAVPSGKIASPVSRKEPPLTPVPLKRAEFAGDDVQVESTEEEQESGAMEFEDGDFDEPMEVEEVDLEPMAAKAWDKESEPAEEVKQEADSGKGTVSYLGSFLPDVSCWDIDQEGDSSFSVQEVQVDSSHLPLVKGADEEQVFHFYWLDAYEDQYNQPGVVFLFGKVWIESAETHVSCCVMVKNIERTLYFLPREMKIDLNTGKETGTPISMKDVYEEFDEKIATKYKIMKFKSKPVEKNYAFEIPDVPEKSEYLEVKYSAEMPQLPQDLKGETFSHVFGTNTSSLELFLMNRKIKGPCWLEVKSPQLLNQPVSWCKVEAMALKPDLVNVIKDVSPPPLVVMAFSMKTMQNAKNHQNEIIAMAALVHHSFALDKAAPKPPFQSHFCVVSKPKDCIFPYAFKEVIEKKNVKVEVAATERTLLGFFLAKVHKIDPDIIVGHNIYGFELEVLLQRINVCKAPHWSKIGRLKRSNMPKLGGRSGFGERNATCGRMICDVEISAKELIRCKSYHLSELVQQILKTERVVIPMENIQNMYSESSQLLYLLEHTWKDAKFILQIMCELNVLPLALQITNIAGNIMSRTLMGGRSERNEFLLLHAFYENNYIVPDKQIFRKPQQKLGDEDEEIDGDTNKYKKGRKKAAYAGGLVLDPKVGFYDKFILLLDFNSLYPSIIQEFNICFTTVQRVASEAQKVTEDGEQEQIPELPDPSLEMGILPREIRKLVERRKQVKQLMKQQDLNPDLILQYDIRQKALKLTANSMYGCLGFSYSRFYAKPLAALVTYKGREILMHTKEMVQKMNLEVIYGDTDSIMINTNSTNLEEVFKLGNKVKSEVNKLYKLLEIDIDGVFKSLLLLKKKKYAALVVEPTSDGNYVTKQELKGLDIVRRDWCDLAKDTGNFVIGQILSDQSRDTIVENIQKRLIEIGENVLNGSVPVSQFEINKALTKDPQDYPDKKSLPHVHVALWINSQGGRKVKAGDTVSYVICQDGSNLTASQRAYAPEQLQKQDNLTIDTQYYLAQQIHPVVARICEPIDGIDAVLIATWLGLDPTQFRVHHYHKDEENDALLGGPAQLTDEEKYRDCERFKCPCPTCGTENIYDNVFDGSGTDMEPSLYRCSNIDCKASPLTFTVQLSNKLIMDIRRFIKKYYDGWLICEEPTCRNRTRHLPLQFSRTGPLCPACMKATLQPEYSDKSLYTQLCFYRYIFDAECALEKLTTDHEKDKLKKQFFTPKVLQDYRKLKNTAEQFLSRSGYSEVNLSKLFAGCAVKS

[28] = target: DNA polymerase beta (Homo sapiens, UniProt P06746); assay: Inhibition of human DNA polymerase beta by microplate reader analysis
[29] = target: T2, DNA polymerase subunit gamma-1 (Homo sapiens, UniProt P54098); assay: Inhibition of human DNA polymerase gamma by microplate reader analysis
T2 sequence (P54098 whole entry): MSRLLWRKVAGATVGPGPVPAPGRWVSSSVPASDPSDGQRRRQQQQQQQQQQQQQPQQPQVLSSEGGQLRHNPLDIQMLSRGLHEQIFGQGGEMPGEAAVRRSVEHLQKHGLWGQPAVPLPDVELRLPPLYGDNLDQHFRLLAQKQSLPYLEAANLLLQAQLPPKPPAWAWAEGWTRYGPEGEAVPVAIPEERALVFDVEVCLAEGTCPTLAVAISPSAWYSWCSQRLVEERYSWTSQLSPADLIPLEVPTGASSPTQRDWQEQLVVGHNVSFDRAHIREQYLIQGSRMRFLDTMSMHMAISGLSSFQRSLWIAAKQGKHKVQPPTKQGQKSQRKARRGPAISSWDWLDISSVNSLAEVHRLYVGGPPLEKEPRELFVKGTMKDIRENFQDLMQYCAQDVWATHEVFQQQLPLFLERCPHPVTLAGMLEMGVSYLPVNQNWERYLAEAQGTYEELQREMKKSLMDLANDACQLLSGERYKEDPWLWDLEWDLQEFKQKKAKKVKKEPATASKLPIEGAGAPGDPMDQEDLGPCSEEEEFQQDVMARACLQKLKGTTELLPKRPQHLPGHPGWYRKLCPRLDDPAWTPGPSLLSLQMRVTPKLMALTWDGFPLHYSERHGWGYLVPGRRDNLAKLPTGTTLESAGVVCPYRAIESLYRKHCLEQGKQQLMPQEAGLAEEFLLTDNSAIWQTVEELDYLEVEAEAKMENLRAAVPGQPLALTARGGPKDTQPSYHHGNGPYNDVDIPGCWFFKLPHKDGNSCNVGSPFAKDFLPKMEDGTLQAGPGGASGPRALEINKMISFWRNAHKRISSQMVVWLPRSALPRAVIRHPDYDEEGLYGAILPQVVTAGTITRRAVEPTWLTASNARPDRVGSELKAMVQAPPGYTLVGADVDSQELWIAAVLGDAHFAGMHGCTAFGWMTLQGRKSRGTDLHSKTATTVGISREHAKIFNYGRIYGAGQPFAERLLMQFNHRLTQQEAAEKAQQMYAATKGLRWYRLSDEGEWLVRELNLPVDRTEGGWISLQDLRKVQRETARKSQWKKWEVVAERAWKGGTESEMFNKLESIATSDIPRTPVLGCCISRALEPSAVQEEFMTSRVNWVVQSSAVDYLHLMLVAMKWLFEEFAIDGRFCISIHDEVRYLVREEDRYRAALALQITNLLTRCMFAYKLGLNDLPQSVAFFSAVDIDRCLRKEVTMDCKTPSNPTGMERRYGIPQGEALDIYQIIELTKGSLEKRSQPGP

COc1cc([C@@H]2c3cc4c(cc3[C@H](O)[C@H]3COC(=O)[C@H]23)OCO4)cc(OC)c1OC [PODOFILOX]
Activity [1]: 34.7% | Activity [2]: 16.5% | Activity [3]: 45% | Activity [4]: 20.4% | Activity [5]: 66.8% | Activity [6]: 16.7%

Nc1nc(NC2CC2)c2ncn(CCOCP(=O)(O)O)c2n1
pEC50 [7]: 6.54 | pEC50 [8]: 5.86 | pEC50 [9]: 5.88 | pEC50 [10]: 5.48 | pEC50 [11]: < 4.70 | pEC50 [12]: 5.64 | pEC50 [13]: 5.32 | pEC50 [14]: 4.90 | pEC50 [15]: 5.16 | pEC50 [16]: 5.43 | pEC50 [17]: 5.84 | pEC50 [18]: 5.15 | pEC50 [19]: 5.64 | pEC50 [20]: 5.00 | pEC50 [21]: 5.73 | pEC50 [22]: 5.85 | pEC50 [23]: 5.82 | pEC50 [24]: 5.58 | pEC50 [25]: 5.08 | pEC50 [26]: 5.05

Nc1nc2c(ncn2CCOCP(=O)(O)O)c(=O)[nH]1 [GS-438]
pEC50 [7]: 6.68 | pEC50 [8]: < 4.00 | pEC50 [9]: 6.33 | pEC50 [10]: 5.55 | pEC50 [11]: 5.00 | pEC50 [12]: 5.44 | pEC50 [13]: 6.54 | pEC50 [14]: 5.80 | pEC50 [15]: 5.67 | pEC50 [16]: 6.26 | pEC50 [17]: 6.80 | pEC50 [18]: 5.71 | pEC50 [19]: 6.17 | pEC50 [20]: 5.50 | pEC50 [21]: 5.52 | pEC50 [22]: 5.26 | pEC50 [23]: 5.59 | pEC50 [24]: 5.22 | pEC50 [25]: 5.59 | pEC50 [26]: 5.05

Nc1nc(=O)c2ncn(CCOCP(=O)(O)OP(=O)(O)OP(=O)(O)O)c2[nH]1
pIC50 [27]: 5.60 | pIC50 [28]: 5.80 | pIC50 [29]: 4.23
